According to ChEMBL document CHEMBL1142127, “Neuroprotective principles from Gastrodia elata” (J Nat Prod, 2007):
The source made the active and inactive calls. The rule behind the calls is not given here.

Legend:
[1] = test system: PC-12; assay: Prevention of serum deprivation-induced PC12 cell apoptosis at 100 uM by MTT assay; format: functional, Rattus norvegicus
[2] = test system: PC-12; assay: Prevention of serum deprivation-induced PC12 cell apoptosis at > 100 uM by MTT assay; format: functional, cell-based; conditions: Rattus norvegicus
[3] = biological target: Adenosine receptor A2a (Rattus norvegicus, UniProt P30543); assay: Binding affinity to adenosine A2A receptor in rat brain striatum; format: tissue-based
[4] = test system: PC-12; assay: Prevention of serum deprivation-induced PC12 cell apoptosis by MTT assay; format: functional, cell-based; conditions: Rattus norvegicus

Adenosine receptor A2a, sequence (P30543 whole entry): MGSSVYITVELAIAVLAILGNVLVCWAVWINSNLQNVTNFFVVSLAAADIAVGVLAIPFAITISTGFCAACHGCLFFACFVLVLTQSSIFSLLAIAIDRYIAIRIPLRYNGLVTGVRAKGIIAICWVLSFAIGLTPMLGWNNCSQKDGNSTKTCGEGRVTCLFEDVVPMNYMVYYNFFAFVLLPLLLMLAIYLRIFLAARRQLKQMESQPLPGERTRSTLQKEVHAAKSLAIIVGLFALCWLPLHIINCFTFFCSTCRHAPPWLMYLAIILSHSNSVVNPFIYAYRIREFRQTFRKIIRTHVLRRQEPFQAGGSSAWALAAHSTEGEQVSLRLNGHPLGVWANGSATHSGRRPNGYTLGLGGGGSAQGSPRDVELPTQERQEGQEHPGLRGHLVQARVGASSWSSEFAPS

Row | SMILES | Activity [1] | Activity [2] | IC50 [3] | Ki [3] | EC50 [4]
1 | Nc1ncnc2c1ncn2[C@@H]1O[C@H](CO)[C@@H](O)[C@H]1O [ADENOSINE] | 80% | – | – | – | –
2 | C[C@H]1O[C@@H](Oc2ccc(COC(=O)CC(O)(CC(=O)OCc3ccc(O[C@@H]4O[C@H](CO)[C@@H](O)[C@H](O)[C@H]4O)cc3)C(=O)Oc3ccc(O[C@H]4O[C@H](CO)[C@@H](O)[C@H](O)[C@H]4O)cc3)cc2)[C@H](O)[C@@H](O)[C@@H]1O (some centres undefined) | – | inactive | – | – | –
3 | OCc1ccc(O[C@@H]2O[C@H](CO)[C@@H](O)[C@H](O)[C@H]2O)cc1 | – | inactive | – | – | –
4 | Oc1ccc(CSCc2ccc(O)cc2)cc1 | – | – | 42.9 µM | 24.1 µM | 7.2 µM
5 | OC[C@H]1O[C@@H](n2cnc3c(NCc4ccc(O)cc4)ncnc32)[C@H](O)[C@@H]1O | – | – | 4.66 µM | 2.62 µM | 0.037 µM
